Format in all cases: biochemical
Test [1] has as its target T1, catalytic domain of MMP-13 enzyme (Homo sapiens, UniProt P45452).
T1 construct: catalytic domain of MMP-13 enzyme (produced by Alantos or commercially available from Invitek (Berlin), Cat. # 30100812); purchased Invitek (Berlin) 30100812
Put plainly: Assay for determining MMP-13 inhibition (fluorescent substrate). Conditions: read-out: MMP-13 Activity (IC50 MMP-13), Group. The method, then:
The typical assay for MMP-13 activity is carried out in assay buffer comprised of 50 mM Tris, pH 7.5, 150 mM NaCl, 5 mM CaCl2 and 0.05% Brij-35. Different concentrations of tested compounds are prepared in assay buffer in 50 μL aliquots. 10 μL of a 50 nM stock solution of catalytic domain of MMP-13 enzyme (produced by Alantos or commercially available from Invitek (Berlin), Cat. # 30100812) is added to the compound solution. The mixture of enzyme and compound in assay buffer is thoroughly mixed and incubated for 10 min at room temperature. Upon the completion of incubation, the assay is started by addition of 40 μl of a 12.5 μM stock solution of MMP-13 fluorescent substrate (Calbiochem, Cat. No. 444235). The time-dependent increase in fluorescence is measured at the 320 nm excitation and 390 nm emission by automatic plate multireader. The IC50 values are calculated from the initial reaction rates.

Test [2] concerns the target T2, catalytic domain of MMP-3 enzyme (Homo sapiens, UniProt P08254).
T2 construct: catalytic domain of MMP-3 enzyme (Biomol, Cat. No. SE-109); purchased Biomol SE-109
Put plainly: Assay for determining MMP-3 inhibition (NFF-3 fluorescent substrate). Particulars: read-out: MMP-3 Activity (IC50 MMP-3), Group. As for the experimental part: The typical assay for MMP-3 activity is carried out in assay buffer comprised of 50 mM MES, pH 6.0, 10 mM CaCl2 and 0.05% Brij-35. Different concentrations of tested compounds are prepared in assay buffer in 50 μL aliquots. 10 μL of a 100 nM stock solution of the catalytic domain of MMP-3 enzyme (Biomol, Cat. No. SE-109) is added to the compound solution. The mixture of enzyme and compound in assay buffer is thoroughly mixed and incubated for 10 min at room temperature. Upon the completion of incubation, the assay is started by addition of 40 μL of a 12.5 μM stock solution of NFF-3 fluorescent substrate (Calbiochem, Cat. No. 480455). The time-dependent increase in fluorescence is measured at the 330 nm excitation and 390 nm emission by an automatic plate multireader. The IC50 values are calculated from the initial reaction rates.

The target in another test is T3, activated MMP-8 enzyme (Homo sapiens, UniProt P22894).
T3 construct: purchased Calbiochem 444229
T3 sequence (P22894 101-467): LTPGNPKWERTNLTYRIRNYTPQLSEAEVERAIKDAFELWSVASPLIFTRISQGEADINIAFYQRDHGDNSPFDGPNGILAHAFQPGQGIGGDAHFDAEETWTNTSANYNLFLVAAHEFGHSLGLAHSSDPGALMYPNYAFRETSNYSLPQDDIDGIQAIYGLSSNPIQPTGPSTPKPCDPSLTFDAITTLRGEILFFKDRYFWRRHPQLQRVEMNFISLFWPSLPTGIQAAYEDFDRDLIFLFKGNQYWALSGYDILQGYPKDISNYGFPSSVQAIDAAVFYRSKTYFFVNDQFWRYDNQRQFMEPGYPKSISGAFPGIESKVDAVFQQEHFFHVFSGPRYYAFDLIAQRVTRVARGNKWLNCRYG
The experiment in a line: Assay for determining MMP-8 inhibition (OmniMMP fluorescent substrate). Particulars: read-out: MMP-8 Activity (IC50 MMP-8), Group. The method, then: The typical assay for MMP-8 activity is carried out in assay buffer comprised of 50 mM Tris, pH 7.5, 150 mM NaCl, 5 mM CaCl2 and 0.05% Brij-35. Different concentrations of tested compounds are prepared in assay buffer in 50 μL aliquots. 10 μL of a 50 nM stock solution of activated MMP-8 enzyme (Calbiochem, Cat. No. 444229) is added to the compound solution. The mixture of enzyme and compound in assay buffer is thoroughly mixed and incubated for 10 min at 37° C. Upon the completion of incubation, the assay is started by addition of 40 μL of a 10 μM stock solution of OmniMMP fluorescent substrate (Biomol, Cat. No. P-126). The time-dependent increase in fluorescence is measured at the 320 nm excitation and 390 nm emission by an automatic plate multireader at 37° C. The IC50 values are calculated from the initial reaction rates.

T2 sequence (P08254 100-272 limits assumed): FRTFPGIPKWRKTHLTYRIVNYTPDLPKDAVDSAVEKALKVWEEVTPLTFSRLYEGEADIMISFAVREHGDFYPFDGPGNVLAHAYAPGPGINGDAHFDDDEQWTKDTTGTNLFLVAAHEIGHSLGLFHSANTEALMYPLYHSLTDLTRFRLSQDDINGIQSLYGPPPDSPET

What is called IC50 is the concentration that inhibits the measured activity by half. For the compound `Cc1c(Br)sc2nc(C(=O)NCc3ccc4c(c3)NC(=O)CO4)[nH]c(=O)c12` [2/11], the IC50 was < 100 nM in test [1], 250 to 20000 nM in test [2] and < 250 nM at activated MMP-8 enzyme.
For the compound `O=C1COc2ccc(CNC(=O)c3nc4scc(-c5cccs5)c4c(=O)[nH]3)cc2N1` [2/49], the results for the IC50 (in test [2]; on activated MMP-8 enzyme) were < 250 nM and 250 to 20000 nM, respectively.
In the case of `Cc1c(CC(=O)O)sc2nc(C(=O)NCc3ccc4c(c3)CN(c3c(N)c(=O)c3=O)CC4)[nH]c(=O)c12` [4/13], the figures for the IC50 (in test [1]; in test [2]; on activated MMP-8 enzyme) were < 100 nM, < 250 nM and < 250 nM, respectively.
With `O=C1COc2ccc(CNC(=O)c3nc4cccc(F)c4c(=O)[nH]3)cc2N1` [2/74], the IC50 in test [1] was < 100 nM; in test [2] it was < 250 nM; on activated MMP-8 enzyme it was < 250 nM.
With `N#CCc1csc2nc(C(=O)NCc3ccc4c(c3)NC(=O)CO4)[nH]c(=O)c12` [Example 19], the figures for the half-inhibitory concentration (IC50) (in test [1]; in test [2]; at activated MMP-8 enzyme) were < 100 nM, < 250 nM and < 250 nM, respectively.
As to `Cc1csc2nc(C(=O)NCc3ccc4c(c3)CN(c3c(N)c(=O)c3=O)CC4)[nH]c(=O)c12` [2/10], the IC50 in test [1] was < 100 nM; in test [2], < 250 nM; on activated MMP-8 enzyme, < 250 nM.
For `Nc1c(N2CCc3ccc(CNC(=O)c4nc5scc(-c6cnccn6)c5c(=O)[nH]4)cc3C2)c(=O)c1=O` [2/186], the values for the 50% inhibitory concentration (IC50) in test [1] and in test [2] were < 100 nM and < 250 nM, respectively.
As for `CN(C)C(=O)Cc1csc2nc(C(=O)NCc3ccc4c(c3)NC(=O)CO4)[nH]c(=O)c12` [2/160], the IC50 in test [1] was < 100 nM; in test [2], 250 to 20000 nM; on activated MMP-8 enzyme, < 250 nM.
Turning to `O=C1COc2ccc(CNC(=O)c3nc4[nH]ncc4c(=O)[nH]3)cc2N1` [39/13], the IC50 was 100 to 20000 nM in test [1] and 250 to 20000 nM in test [2].
In the case of `O=C1COc2ccc(CNC(=O)c3nc4cc(Br)ccc4c(=O)[nH]3)cc2N1` [2/39], the IC50 is < 100 nM in test [1], 250 to 20000 nM in test [2] and < 250 nM at activated MMP-8 enzyme.
Regarding `C[C@@H](NC(=O)c1ccccc1)c1ccc2nc(C(=O)NCc3ccc4c(c3)NC(=O)CO4)[nH]c(=O)c2c1` [29/1], the figures for the half-inhibitory concentration (IC50) (in test [1]; in test [2]; at activated MMP-8 enzyme) were < 100 nM, 250 to 20000 nM and < 250 nM, respectively.
The matching figures for `O=C1COc2ccc(CNC(=O)c3nc4ccc(CNC(=O)c5ccccc5)cc4c(=O)[nH]3)cc2N1` [2/93]: < 100 nM, 250 to 20000 nM and < 250 nM.
The matching figures for `COc1cccc2nc(C(=O)NCc3ccc4c(c3)NC(=O)CO4)[nH]c(=O)c12` [Example 35]: < 100 nM, < 250 nM and < 250 nM.
The matching figures for `O=C1COc2ccc(CNC(=O)c3nc4ccc(F)cc4c(=O)[nH]3)cc2N1` [2/23]: < 100 nM, < 250 nM and < 250 nM.
On to `O=C(Cc1csc2nc(C(=O)NCc3ccc4c(c3)NC(=O)CO4)[nH]c(=O)c12)NCS(=O)(=O)O` [2/271], for which the IC50 is < 100 nM in test [1] and 250 to 20000 nM in test [2].
On to `COC(=O)c1cccc2nc(C(=O)NCc3ccc4c(c3)NC(=O)CO4)[nH]c(=O)c12` [Example 36], for which the concentration for half-maximal inhibition (IC50) in test [1] was < 100 nM; in test [2], 250 to 20000 nM; at activated MMP-8 enzyme, 250 to 20000 nM.
For `O=C1COc2ccc(CNC(=O)c3nc4c(c(=O)[nH]3)CCCC4)cc2N1` [2/55], the IC50 in test [1] is < 100 nM; in test [2], 250 to 20000 nM; on activated MMP-8 enzyme, < 250 nM.
Taken in the same sequence, the figures for `O=C1COc2ccc(CNC(=O)c3nc4ccc(Br)cc4c(=O)[nH]3)cc2N1` [Example 2/21] were < 100 nM, < 250 nM and < 250 nM.
`COc1ccc2nc(C(=O)NCc3ccc4c(c3)NC(=O)CO4)[nH]c(=O)c2c1` [2/71]: the concentration for half-maximal inhibition (IC50) in test [2] was < 250 nM.
Take `Nc1c(N2CCc3ccc(CNC(=O)c4nc5scc(-c6ccco6)c5c(=O)[nH]4)cc3C2)c(=O)c1=O` [2/98]: the results for the half-maximal inhibitory concentration (IC50) (in test [1]; in test [2]; on activated MMP-8 enzyme) were < 100 nM, < 250 nM and 250 to 20000 nM, respectively.
With `Cc1sc2nc(C(=O)NCc3ccc4c(c3)NC(=O)CO4)[nH]c(=O)c2c1-c1ccccc1` [2/105], the IC50 (in test [2]; at activated MMP-8 enzyme) was 250 to 20000 nM in each case.
On to `CNC(=O)C(C)c1csc2nc(C(=O)NCc3ccc4c(c3)NC(=O)CO4)[nH]c(=O)c12` (centres unmarked) [2/183], for which the IC50 is 250 to 20000 nM in test [2] and < 250 nM on activated MMP-8 enzyme.
As to `Cc1sc2nc(C(=O)NCc3ccc4c(c3)NC(=O)CO4)[nH]c(=O)c2c1C(C)c1ccccc1` (centres unmarked) [2/373], the IC50 in test [1] is < 100 nM; in test [2], 250 to 20000 nM; at activated MMP-8 enzyme it was < 250 nM.
The matching figures for `O=C1COc2ccc(CNC(=O)c3nc4ccsc4c(=O)[nH]3)cc2N1` [2/20]: < 100 nM, 250 to 20000 nM and 250 to 20000 nM.
The matching figures for `N#Cc1ccc2nc(C(=O)NCc3ccc4c(c3)NC(=O)CO4)[nH]c(=O)c2c1` [Example 9]: < 100 nM, < 250 nM and < 250 nM.
As to `O=C1COc2ccc(CNC(=O)c3nc4ccc(Cl)cc4c(=O)[nH]3)cc2N1` [2/26], the IC50 (in test [2]; on activated MMP-8 enzyme) was < 250 nM each time.
Regarding `Cc1c(CC(=O)O)sc2nc(C(=O)NCc3ccc4c(c3)NC(=O)CO4)[nH]c(=O)c12` [4/12], the IC50 in test [1] was < 100 nM; in test [2] it was 250 to 20000 nM.
On to `O=C1COc2ccc(CNC(=O)c3nc4scc(-c5cnccn5)c4c(=O)[nH]3)cc2N1` [2/185], for which the IC50 in test [1] was < 100 nM; in test [2], < 250 nM; at activated MMP-8 enzyme it was 250 to 20000 nM.
The matching figures for `O=C1COc2ccc(CNC(=O)c3nc4scc(C(F)(F)F)c4c(=O)[nH]3)cc2N1` [2/86]: < 100 nM, < 250 nM and 250 to 20000 nM.
As for `Nc1c(N2CCc3ccc(CNC(=O)c4nc5scc(-c6ccccc6)c5c(=O)[nH]4)cc3C2)c(=O)c1=O` [2/110], the IC50 in test [1] is < 100 nM; in test [2], 250 to 20000 nM; at activated MMP-8 enzyme it was 250 to 20000 nM.
In the case of `CC(=O)NCc1ccc2nc(C(=O)NCc3ccc4c(c3)NC(=O)CO4)[nH]c(=O)c2c1` [2/91], in test [2], the half-inhibitory concentration (IC50) was < 250 nM.
As to `O=C1COc2ccc(CNC(=O)c3nc4cccc(NCc5ccccc5)c4c(=O)[nH]3)cc2N1` [36/3], the half-maximal inhibitory concentration (IC50) in test [2] was 250 to 20000 nM.
In the case of `O=C(O)CCC(=O)NCc1ccc2nc(C(=O)NCc3ccc4c(c3)NC(=O)CO4)[nH]c(=O)c2c1` [Example 17], the IC50 is < 100 nM in test [1] and < 250 nM on activated MMP-8 enzyme.
The matching figures for `Cc1c(C(C)O)sc2nc(C(=O)NCc3ccc4c(c3)NC(=O)CO4)[nH]c(=O)c12` (centres unmarked) [Example 21]: < 100 nM and < 250 nM.
The matching figures for `O=C(NCc1ccc2c(c1)CCO2)c1nc2ccccc2c(=O)[nH]1` [2/7]: < 100 nM and 250 to 20000 nM.
As for `O=C1COc2cc(CNC(=O)c3nc4ccc(Cl)cc4c(=O)[nH]3)ccc2N1` [2/27], the half-maximal inhibitory concentration (IC50) in test [1] lay in the range of 100 to 20000 nM; at activated MMP-8 enzyme it was 250 to 20000 nM.
The matching figures for `O=C(Cc1csc2nc(C(=O)NCc3ccc4c(c3)NC(=O)CO4)[nH]c(=O)c12)NCc1ccc2c(c1)NC(=O)CO2` [2/149]: < 100 nM and < 250 nM.
For `O=C(NCc1ccc2c(c1)OC(F)(F)O2)c1nc2ccccc2c(=O)[nH]1` [2/6], the IC50 lay within 100 to 20000 nM in test [1] and 250 to 20000 nM at activated MMP-8 enzyme.
Taken in the same sequence, the figures for `Nc1c(N2CCc3ccc(CNC(=O)c4nc5cc(F)c(F)cc5c(=O)[nH]4)cc3C2)c(=O)c1=O` [39/24] were < 100 nM and 250 to 20000 nM.
Taken in the same sequence, the figures for `O=C1COc2ccc(CNC(=O)c3nc4ccc(CNC(=O)C56C7C8C5C5C6C7C85C(=O)O)cc4c(=O)[nH]3)cc2N1` (centres unmarked) [4/3] were < 100 nM and < 250 nM.
